From patent publication US11925653B2, “Combination therapy effective against microorganisms, including drug resistant microorganisms” (Fleurir ABX LLC, priority 2021, dated 2024)
Marks after values point to notes of the source that are not given here.

Tests used:
[1] = representative pharmacokinetic parameters; format: in vivo
From the text: The therapeutically effective amount may be modified by pharmacokinetic, and pharmacodynamic analysis as is understood in the field. In some embodiments, the novel composition may be provided prophylactically or preventatively or protectively, which may, in some instances, be at or below a therapeutically effective amount.

[2] = test system: E. coli; conditions: cited from earlier work
[3] = test system: Enterococcus faecalis; experiment: MIC and synergy checkerboard assay, broth microdilution; format: cell-based
[4] = test system: Pseudomonas aeruginosa; experiment: as above; format: cell-based
Method: (§1) The described novel combination was tested against both reference, and clinically resistant strains of S. aureus, E, coli, K. pneumoniae, and P. aeruginosa. Reference and clinical isolates were obtained from the American Type Culture Collection (ATCC, Manasas, VA.) and International Health Management Associates, Inc. (Schaumberg, IL). Bacteria were cultured in trypticase soy broth, concentrated 10-fold by centrifugation, and cryopreserved in the same medium containing 20% glycerol by holding at −80° C. Every two weeks a small amount of frozen culture was removed aseptically, and streaked on fresh trypticase soy agar plates to act as a working inoculum. Following overnight growth at about 37° C., the plates were wrapped in parafilm, and held at about 4° C. Bacteria (4-5 colonies) were then aseptically transferred into broth growth medium for assays as needed.
(§2) Minimum inhibitory concentration (MIC) assays were performed in a manner as described for the CLSI Agar dilution or broth microdilution assay guideline (see, Clinical Laboratory Standards Institute, 2009, Methods for Dilution Antimicrobial Susceptibility Tests for Bacteria That Grow Aerobically; Approved Standard, Eighth Edition, M07-A8, Vol. 29, No. 2). For example, known antibiotics or the compositions described herein were dissolved, serially diluted, and then added to tempered molten Mueller-Hinton Agar before pouring of plates; or were dissolved, and then serially diluted in 100 μL cation-adjusted Mueller-Hinton broth across the assay plate in the classical 2-fold geometric format. D-glucose-6-phosphate was included as a medium supplement in both agar, and broth at a concentration of 50 mg/L. Antibiotic concentrations for agar assay were at the final concentration. Antibiotic concentrations for broth microdilution in each well at this point were double what the final assay concentration would be. Bacterial inocula were prepared by swabbing several colonies from a fresh agar plate, and re-suspending the bacteria to a density that was the 0.5 McFarland turbidity standard, considered close or equivalent to 1×10^8 CFU/mL. For agar dilution, a steers replicator was utilized to deliver 1×10^4 CFU/spot. For broth microdilution, the bacterial inocula were diluted in the cation-adjusted Mueller-Hinton broth to 1×10^6 CFU/mL, and 100 μL was overlayered onto the wells containing a diluted antibiotic or a composition described. Following incubation as per the guideline, results were recorded as growth or no growth, and the lowest concentration of the antibiotic or the composition described where no growth was observed was declared the MIC.
(§3) To assay for synergy of antibacterial combinations, a recognized synergy checkerboard assay, adapted from the CLSI guideline microdilution assay, was utilized (see Eliopoulos, G. M., and Moellering, R. C, Jr., 1996. Antimicrobial Combinations, pg. 330-396. In: Lorian, V. (Ed.), Antibiotics in Laboratory Medicine, 4th Ed., Williams & Wilkins; Baltimore, MD). In the case of the agar dilution method, each antibiotic alone, or in combination was added to agar prior to plate pouring. For broth microdilution, the first compound (or antibiotic or agent) was diluted in cation-adjusted Mueller-Hinton broth across the plate along the horizontal axis with each well in a row containing 50 μL of an identical concentration of compound (or antibiotic). Along the vertical axis a dilution series of the second compound (or antibiotic) was dispensed. At this point the drug concentrations are four-fold of the final desired working concentration. […] Following incubation, wells with no growth are noted. […] FIC=(MIC-A combination/MIC-A alone)+(MIC-B combination/MIC-B alone).
(§4) In the above, FIC: Synergy=FIC<0.5; Additive=FIC>0.5-1; Indifferent=FIC>1-2; Antagonism=FIC>2-4.

[5] = test system: Staphylococcus aureus; experiment: as above; format: cell-based
Method: as §1, §2, §3, §4

[6] = test system: Escherichia coli; experiment: as above; format: cell-based
Method: as §1, §2, §3, §4

[7] = test system: E. faecalis; conditions: cited from earlier work
[8] = test system: bacteria; experiment: spontaneous mutational frequency (SMF; resistance); format: cell-based; conditions: resistant colonies observed divided by total inoculum; plates with 4-fold MIC of the combination or 2-fold MIC of each antibiotic alone
Method: MIC was further evaluated to confirm resistance, and the spontaneous mutational frequency was calculated based on the following equation: […]
The spontaneous mutational frequency (SMF; resistance) was calculated as the number of resistant colonies observed divided by the total inoculum.

C[C@@H]1O[C@@H]1P(=O)(O)O [Fosfomycin, cis-1,2-epoxypropyl phosphonic acid]
4 µg/mL: MIC (Combo as F/DP/SM; second compound as DP/SM) ([3]; E. faecalis 1129099) | MIC (Combo as F/DP/SM; second compound as DP/SM) ([5]; S. aureus 829025 (MRSA strains)) | MIC (Combo as F/DP/SM; second compound as DP/SM) ([5]; S. aureus 938125 (MRSA strains))
64 µg/mL: MIC (Combo as F/DP/SM; second compound as DP/SM) ([3]; E. faecalis 1120278) | MIC (Combo as F/DP/SM; second compound as DP/SM) ([3]; Enterococcus faecalis (ATCC 29212)) | MIC (Combo as F/DP/SM; second compound as DP/SM) ([4]; P. aeruginosa 826882) | MIC (Combo as F/DP/SM; second compound as DP/SM) ([4]; P. aeruginosa 880238) | MIC (Combo as F/DP/SM; second compound as DP/SM) ([4]; P. aeruginosa 906939) | MIC (Combo as F/DP/SM; second compound as DP/SM) ([4]; P. aeruginosa 945545) | MIC (Combo as F/DP/SM; second compound as DP/SM) ([4]; P. aeruginosa 945748) | MIC (Combo as F/DP/SM; second compound as DP/SM) ([5]; Staphylococcus aureus (ATCC 33591)) | MIC (Combo as F/DP/SM; second compound as DP/SM) ([5]; Staphylococcus aureus (USA-300 CDC- MRSA)) | MIC (Combo as F/DP/SM; second compound as DP/SM) ([6]; Escherichia coli (854535)) | MIC (Combo as F/DP/SM; second compound as DP/SM) ([6]; Escherichia coli (928017))
6.33×10^−6: frequency of spontaneous mutants resistant (spontaneous mutational frequency, SMF) [8]
5.7 h: half-life ([1]; in vivo, 3000 mg, read-out: T ½ (converted))
256* μg/ml: MIC (Combo as F/DP/SM; second compound as DP/SM) ([3]; Enterococcus faecalis (MGH-01) (VanA)) | MIC (Combo as F/DP/SM; second compound as DP/SM) ([4]; Pseudomonas aeruginosa (924190))
128* μg/ml: MIC (Combo as F/DP/SM; second compound as DP/SM) ([3]; Enterococcus faecalis (MGH-06)) | MIC (Combo as F/DP/SM; second compound as DP/SM) ([4]; Pseudomonas aeruginosa (985543)) | MIC (Combo as F/DP/SM; second compound as DP/SM) ([5]; Staphylococcus aureus (MGH-04))
2 µg/mL: MIC (Combo as F/DP/SM; second compound as DP/SM) ([5]; S. aureus 920516 (MRSA strains)) | MIC (Combo as F/DP/SM; second compound as DP/SM) ([5]; S. aureus 920962 (MRSA strains)) | MIC (Combo as F/DP/SM; second compound as DP/SM) ([5]; S. aureus 1045190 (MRSA strains)) | MIC (Combo as F/DP/SM; second compound as DP/SM) ([6]; Escherichia coli 846446)
8 µg/mL: MIC (Combo as F/DP/SM; second compound as DP/SM) ([5]; S. aureus 829049 (MRSA strains)) | MIC (Combo as F/DP/SM; second compound as DP/SM) ([5]; S. aureus 903887 (MRSA strains)) | MIC (Combo as F/DP/SM; second compound as DP/SM) ([5]; S. aureus 927596 (MRSA strains)) | MIC (Combo as F/DP/SM; second compound as DP/SM) ([5]; S. aureus 953041 (MRSA strains)) | MIC (Combo as F/DP/SM; second compound as DP/SM) ([5]; S. aureus 967287 (MRSA strains)) | MIC (Combo as F/DP/SM; second compound as DP/SM) ([5]; S. aureus 974980 (MRSA strains)) | MIC (Combo as F/DP/SM; second compound as DP/SM) ([6]; Escherichia coli (ATCC 25922))
32 to 128 µg/mL: MIC [7]
2 h: Tmax ([1]; in vivo, read-out: Tmax)
28 µg/mL: MIC (Combo as F/DP/SM; second compound as DP/SM) ([5]; S. aureus 956270 (MRSA strains))
0.122 h⁻¹: kel (elimination rate constant) ([1]; Dose: Fosfomycin 3000 mg, trimethoprim 720 mg)
0.5 to 2 µg/mL: MIC [2]
16 µg/mL: MIC (Combo as F/DP/SM; second compound as DP/SM) ([5]; S. aureus 956362 (MRSA strains)) | MIC (Combo as F/DP/SM; second compound as DP/SM) ([5]; S. aureus 979234 (MRSA strains)) | MIC (Combo as F/DP/SM; second compound as DP/SM) ([5]; Staphylococcus aureus (959797 - MRSA)) | MIC (Combo as F/DP/SM; second compound as DP/SM) ([6]; Escherichia coli 846450)
32 µg/mL: MIC (Combo as F/DP/SM; second compound as DP/SM) ([3]; E. faecalis 1082155) | MIC (Combo as F/DP/SM; second compound as DP/SM) ([3]; E. faecalis 1175598) | MIC (Combo as F/DP/SM; second compound as DP/SM) ([3]; E. faecalis 10864321) | MIC (Combo as F/DP/SM; second compound as DP/SM) ([4]; P. aeruginosa 926474) | MIC (Combo as F/DP/SM; second compound as DP/SM) ([4]; P. aeruginosa 945543) | MIC (Combo as F/DP/SM; second compound as DP/SM) ([5]; Staphylococcus aureus (918019 - MRSA)) | MIC (Combo as F/DP/SM; second compound as DP/SM) ([5]; Staphylococcus aureus (ATCC 29213 - MSSA)) | MIC (Combo as F/DP/SM; second compound as DP/SM) ([6]; Escherichia coli 846439) | MIC (Combo as F/DP/SM; second compound as DP/SM) ([6]; Escherichia coli 857021) | MIC (Combo as F/DP/SM; second compound as DP/SM) ([6]; Escherichia coli 863686)
